Laboratory results taken from ChEMBL document CHEMBL4270546, “A novel Anti-Cancer Stem Cells compound optimized from the natural symplostatin 4 scaffold inhibits Wnt/β-catenin signaling pathway” (Eur J Med Chem, 2018).

Legend:
Type in all cases: functional, cell-based
MDA-MB-231 = experiment: Antiproliferative activity against human MDA-MB-231 cells after 48 hrs by MTT assay; conditions: MDA-MB-231, 48 h
PANC-1 = experiment: Antiproliferative activity against human PANC1 cells after 48 hrs by MTT assay; conditions: PANC-1, 48 h
4T1 = experiment: Antiproliferative activity against mouse 4T1 cells after 48 hrs by MTT assay; conditions: 4T1, 48 h
A549 = experiment: Antiproliferative activity against human A549 cells after 48 hrs by MTT assay; conditions: A549, 48 h
B16-F10 = experiment: Antiproliferative activity against mouse B16F10 cells after 48 hrs by MTT assay; conditions: B16-F10, 48 h
A-375 = experiment: Antiproliferative activity against human A375 cells after 48 hrs by MTT assay; conditions: A-375, 48 h
MCF7 = experiment: Antiproliferative activity against human MCF7 cells after 48 hrs by MTT assay; conditions: MCF7, 48 h
HT-29 = experiment: Antiproliferative activity against human HT-29 cells
HeLa = experiment: Antiproliferative activity against human HeLa cells

| SMILES | IC50 (MDA-MB-231) [µM] | IC50 (PANC-1) [µM] | IC50 (4T1) [µM] | IC50 (A549) [µM] | IC50 (B16-F10) [µM] | IC50 (A-375) [µM] | IC50 (MCF7) [µM] | IC50 (HT-29) [µM] | IC50 (HeLa) [µM] |
| --- | --- | --- | --- | --- | --- | --- | --- | --- | --- |
| CC[C@H](C)[C@H](NC(=O)OCc1ccccc1)C(=O)O[C@@H](CC(C)C)C(=O)N[C@@H](CC(C)C)C(=O)N[C@@H](C)/C=C/C(=O)N1C(=O)C=C(OC)[C@@H]1Cc1ccccc1 | > 100 | 59.3 | 79.8 | 41.4 | 30.1 | 45.9 | > 100 | – | – |
| CC[C@H](C)[C@H](NC(=O)OCc1ccccc1)C(=O)N[C@@H](CC(C)C)C(=O)N[C@@H](CC(C)C)C(=O)N[C@@H](C)/C=C/C(=O)N1C(=O)C=C(OC)[C@@H]1c1c[nH]c2ccccc12 | > 100 | > 100 | > 100 | > 100 | > 100 | > 100 | > 100 | – | – |
| CC[C@H](C)[C@@H](C(=O)O[C@@H](CC(C)C)C(=O)N[C@@H](CC(C)C)C(=O)N[C@@H](C)/C=C/C(=O)OC)N(C)C | > 100 | > 100 | > 100 | > 100 | > 100 | > 100 | > 100 | – | – |
| CC[C@H](C)[C@H](NC(=O)OCc1ccccc1)C(=O)N[C@@H](CC(C)C)C(=O)N[C@@H](CC(C)C)C(=O)N[C@@H](C)/C=C/C(=O)N1C(=O)C=C(OC)[C@@H]1Cc1ccccc1 | > 100 | > 100 | > 100 | > 100 | > 100 | > 100 | > 100 | – | – |
| CC[C@H](C)[C@@H](C(=O)O[C@@H](CC(C)C)C(=O)N[C@@H](CC(C)C)C(=O)N[C@@H](C)/C=C/C(=O)N(CC)CC)N(C)C | > 100 | > 100 | > 100 | > 100 | > 100 | > 100 | > 100 | – | – |
| CC[C@H](C)[C@@H](C(=O)O[C@@H](CC(C)C)C(=O)N[C@@H](CC(C)C)C(=O)N[C@@H](C)/C=C/C(=O)N1C(=O)C=C(OC)[C@@H]1C)N(C)C [GALLINAMIDE A] | 34.9 | 31.2 | 34.6 | 40.4 | 59.7 | 45.6 | 45.5 | 53 | 12 |
| CC[C@H](C)[C@@H](C(=O)N[C@@H](CC(C)C)C(=O)N[C@@H](CC(C)C)C(=O)N[C@@H](C)/C=C/C(=O)N1C(=O)C=C(OC)[C@@H]1C)N(C)C | 38.2 | 15.7 | 16.5 | 50.5 | 15.1 | 11.2 | 38.9 | – | – |
| CC[C@H](C)[C@@H](C(=O)O[C@@H](CC(C)C)C(=O)N[C@@H](CC(C)C)C(=O)N[C@@H](C)/C=C/C(=O)NC(C)(C)C)N(C)C | > 100 | 38.3 | > 100 | > 100 | > 100 | > 100 | > 100 | – | – |
| CC[C@H](C)[C@@H](C(=O)O[C@@H](CC(C)C)C(=O)N[C@@H](CC(C)C)C(=O)N[C@@H](C)/C=C/C(=O)N1CCOCC1)N(C)C | > 100 | > 100 | > 100 | > 100 | > 100 | > 100 | > 100 | – | – |

Continued, in another order:

| IC50 (MDA-MB-231) [µM] | IC50 (PANC-1) [µM] | IC50 (4T1) [µM] | IC50 (A549) [µM] | IC50 (B16-F10) [µM] | IC50 (A-375) [µM] | IC50 (MCF7) [µM] | SMILES | IC50 (HT-29) [µM] | IC50 (HeLa) [µM] |
| --- | --- | --- | --- | --- | --- | --- | --- | --- | --- |
| 15.6 | 14 | 15 | 13.8 | 4.23 | 5.49 | 32.9 | CC[C@H](C)[C@H](NC(=O)OCc1ccccc1)C(=O)O[C@@H](CC(C)C)C(=O)N[C@@H](CC(C)C)C(=O)N[C@@H](C)/C=C/C(=O)N1C(=O)C=C(OC)[C@@H]1C | – | – |
| 22.2 | 5.21 | 20.1 | 36.2 | 7.07 | 9.89 | 14.9 | C#CCCC(=O)N[C@H](C(=O)N[C@@H](CC(C)C)C(=O)N[C@@H](CC(C)C)C(=O)N[C@@H](C)/C=C/C(=O)N1C(=O)C=C(OC)[C@@H]1C(C)C)[C@@H](C)CC | – | – |
| 98.3 | 36 | 27.6 | 52.5 | 61.6 | 35.7 | > 100 | CC[C@H](C)[C@@H](C(=O)N[C@@H](CC(C)C)C(=O)N[C@@H](CC(C)C)C(=O)N[C@@H](C)/C=C/C(=O)N1C(=O)C=C(OC)[C@@H]1C(C)C)N(C)C | – | – |
| 12.8 | 19.6 | 27.9 | 27.5 | 24.9 | 13.7 | 21.2 | CC[C@H](C)[C@H](NC(=O)OCc1ccccc1)C(=O)O[C@@H](CC(C)C)C(=O)N[C@@H](CC(C)C)C(=O)N[C@@H](C)/C=C/C(=O)N1C(=O)C=C(OC)[C@@H]1C(C)C | – | – |
| 79.7 | 82.1 | 19.2 | 30 | 29.2 | 11.4 | 75.1 | COC1=CC(=O)N(C(=O)/C=C/[C@H](C)NC(=O)[C@H](CC(C)C)N(C)C)[C@H]1C | – | – |
| 32.8 | 11.6 | 40.8 | 14.6 | 15.2 | 15.2 | 11.2 | CC[C@H](C)[C@H](NC(=O)Cc1cccc(C(F)(F)F)c1)C(=O)N[C@@H](CC(C)C)C(=O)N[C@@H](CC(C)C)C(=O)N[C@@H](C)/C=C/C(=O)N1C(=O)C=C(OC)[C@@H]1C(C)C | – | – |
| 57.7 | 67 | > 100 | > 100 | > 100 | > 100 | > 100 | COC1=CC(=O)N(C(=O)/C=C/[C@H](C)NC(=O)[C@H](CC(C)C)N(C)C)[C@H]1Cc1ccccc1 | – | – |
| 25.1 | > 100 | 35.3 | 20.8 | 60.5 | 44.2 | 10.1 | CC[C@H](C)[C@H](NC(=O)Nc1ccc(OC)cc1)C(=O)N[C@@H](CC(C)C)C(=O)N[C@@H](CC(C)C)C(=O)N[C@@H](C)/C=C/C(=O)N1C(=O)C=C(OC)[C@@H]1C(C)C | – | – |
| 89.5 | 12.8 | > 100 | > 100 | 30.5 | 7.56 | 18.6 | COC1=CC(=O)N(C(=O)/C=C/[C@H](C)NC(=O)[C@H](CC(C)C)N(C)C)[C@H]1C(C)C | – | – |
| 1.96 | 0.787 | 1.92 | 15.1 | 0.892 | 1.35 | 4.66 | CC[C@H](C)[C@H](NC(=O)OCc1ccccc1)C(=O)N[C@@H](CC(C)C)C(=O)N[C@@H](CC(C)C)C(=O)N[C@@H](C)/C=C/C(=O)N1C(=O)C=C(OC)[C@@H]1C | – | – |
| 94.8 | 86.9 | > 100 | > 100 | > 100 | > 100 | > 100 | COC1=CC(=O)N(C(=O)/C=C/[C@H](C)NC(=O)[C@H](CC(C)C)N(C)C)[C@@H]1Cc1ccccc1 | – | – |
